The values below come from PMC10004777 (Molecules, 2023).

The target of data set [1] is T1, MDM2 protein (Homo sapiens, UniProt Q00987).
T1 construct: purchased Protintech (so in the source)
More on the design: method as in PMID 22380771.

In data set [2] the test system is osteosarcoma cell line SJSA-1. The data set is described as follows: Cell viability (MTT) assay, SJSA-1. The data set is classed as cell-based. The following applies: for Viability of Cells (% of Control): 72 h, MTT. On the procedure: (§1) To investigate the selectivity of these derivatives towards different tumor cell lines, we also selected HepG2 and osteosarcoma cell line SJSA-1 cells to evaluate the anti-proliferation activity of the derivatives. […] Except for compounds A2 and A11, the effects of other compounds on SJSA-1 were not strong.
(§2) The cell lines present in this study were obtained from Procell Life Science & Technology Co. Ltd. MCF-7, HepG2 and SJSA-1 cells were cultured in DMEM medium (DMEM, Gibco) supplemented with 10% fetal bovine serum (FBS, Gibco), 1% penicillin-streptomycin (Hyclone) at 37℃ in a humid environment with 5% CO2. HK-2 cells were cultured in DMEM/F12 (1:1) medium and placed in incubators in the same environment.
(§3) Cell viability was determined by MTT assay. MCF-7, HepG2, SJSA-1 and HK-2 cells (6 × 10^3 cells /well) were seeded in 96-well plates with serum-free medium for 24 h. […] After 48 or 72 h, 10 μL MTT (5 mg/mL, Beyotime) was added and incubated at 37 °C for 4 h. Then 100 μL of lysate was added. After complete dissolution of the crystal, the absorbance was measured at 540 nm and expressed as the average percentage of absorbance between treated and control cells. The value for control cells was set at 100%. Cell survival rate was calculated as the ratio of the absorbance of the cells and negative control after minus the blank absorbance respectively.

Data set [3] deals with HK-2 cells. Briefly: Cell viability (MTT) assay, HK-2 normal cells (cytotoxicity). The data set is classed as cell-based. The following applies: HK-2 normal cells, 48 h, MTT. On the procedure:
as §2, §3

The test system of data set [4] is MDM2 and p53 protein in SJSA-1 cell line. Briefly: Western blot protein expression, SJSA-1. The following applies: SJSA-1, 24 h, 12.5, 25 and 50 µM. It counts as cell-based. An excerpt:
(§4) In the introduction section, we introduced that the concept that the MDM2-p53 pathway can induce cell apoptosis by up-regulating the expression of p53 protein to inhibit the proliferation of tumor cells, and by blocking the interaction of MDM2 and p53, the activation of p53 results in transcription of MDM2 mRNA, leading to robust MDM2 protein accumulation. In order to verify the effect of A2 on this pathway, we examined the effect of A2 on the protein level of MDM2, p53 protein and Bcl-2/Bax related to apoptosis, as shown in Figure 5. […] The level of Bcl-2/Bax decreased which was consistent with the apoptosis of MCF-7 cells induced by A2. We also investigated the effect of A2 on the SJSA-1 cell line which overexpresses MDM2.
For Western blot analysis, MCF-7 and SJSA-1 cells were treated with different concentrations of A2 for 24 h. The total cell protein was extracted, and proteins were isolated using 10% SDS-PAGE gel system. The proteins on the gel were transferred to PVDF membrane, blocked in 5% BSA at room temperature for 2 h, incubated in primary antibody dilution at 4 °C overnight, and washed with TBST for 3 times, 10 min each. […] ECL chemiluminescence development solution (Beyotime, BeyoECL star) was added uniformly and detected on gel imaging system (Clinx ChemiScope, China). […]

Data set [5] relates to SJSA-1 cells. The data set is described as follows: Flow cytometry apoptosis, Annexin V-FITC/PI staining. The data set is classed as cell-based. The following applies: 24 h. On the procedure: Cells were stained with Annexin V-FITC and propidium iodide.
To determine the apoptosis rate, an Annexin V-FITC/PI double staining apoptosis assay kit (Beyotime) was used to detect apoptotic cells by flow cytometry (BD FACSALOBUR), according to the manufacturer’s instructions. Briefly, SJSA-1 cells were treated with 0.1% DMSO, 12.5, 25, and 50 μM of A2 for 24 h. After harvesting, the cells were incubated with 5 μL Annexin V-FITC for 15 min and 10 μL PI for 5 min at 4 °C under dark conditions. Flow cytometry was then performed to analyze the apoptosis rate. Data were analyzed by using BD FACSDiva 8.0.1.

In data set [6] the test system is HepG2 cells. Briefly: Cell viability (MTT) assay, HepG2. The data set is classed as cell-based. The following applies: for Viability of Cells (% of Control): 48 h, MTT. On the procedure:
as §1, §2, §3

Data set [7] relates to MDM2, p53 protein and Bcl-2/Bax in MCF-7 cells. Briefly: Western blot protein expression, MCF-7. The data set is classed as cell-based. The following applies: MCF-7, 24 h.
Excerpt: as §4
For Western blot analysis, MCF-7 and SJSA-1 cells were treated with different concentrations of A2 for 24 h. The total cell protein was extracted, and proteins were isolated using 10% SDS-PAGE gel system. The proteins on the gel were transferred to PVDF membrane, blocked in 5% BSA at room temperature for 2 h, incubated in primary antibody dilution at 4 °C overnight, and washed with TBST for 3 times, 10 min each. Then, they were transferred to dilute release solution of secondary antibody and incubated at room temperature for 2 h. ECL chemiluminescence development solution (Beyotime, BeyoECL star) was added uniformly and detected on gel imaging system (Clinx ChemiScope, China). Antibodies for blotting were MDM2 (abcam, ab16895), P53 (Proteintech, 10442-1-AP), Bcl-2 (CST, 15071S), Bax (CST, 2772T) and β-actin (abcam, ab8226).
In general terms: Immunoblotting shows a protein as a band on a membrane.

The test system of data set [8] is MCF-7 breast cancer cells. The data set is described as follows: Cell viability (MTT) assay, MCF-7. The data set is classed as cell-based. The following applies: for Viability of Cells (% of Control): 48 h, MTT. On the procedure: MCF-7 is a commonly used tumor cell line.
as §2, §3

Data set [9] addresses T1, MDM2 protein. The data set is described as follows: Surface plasmon resonance (SPR) binding assay. On the procedure: In order to speculate whether A2 effects the p53-MDM2 pathway by binding with MDM2 to inhibit the interaction between MDM2 and p53, we carried out in silico and in vitro binding experiments. […] We used the S-value to evaluate the binding degree of the compound and MDM2 in the molecular docking experiments. The higher the absolute value of this number, the stronger the binding force.
MDM2 protein (5 mg/mL, Protintech) was immobilized on a PCH sensor chip (Octet) and preactivated with EDC/NHS mixture for 420 s at a flow rate of 10 μL/min. A2 was diluted to 100, 50, 25, 12.5, 6.25, 3.13, 0 μM with PBST buffer containing 1% DMSO. The binding time was 600 s, and the flow rate was 20 μL/min. The dissociation time was 180 s, and the affinity constant KD value was obtained by computer fitting and steady-state analysis.
A general note: Surface plasmon resonance follows binding to a sensor surface in real time, without labels.

Data set [10] concerns 95-D cells versus H1299 cells. The arrangement: method as in doi:10.13386/j.issn1002-0306.2015.11.030. The following applies: cited from earlier work.

The structures appear in SMILES notation. Where two headings read alike, the source gives them in different places.

T1 sequence (Q00987 whole entry): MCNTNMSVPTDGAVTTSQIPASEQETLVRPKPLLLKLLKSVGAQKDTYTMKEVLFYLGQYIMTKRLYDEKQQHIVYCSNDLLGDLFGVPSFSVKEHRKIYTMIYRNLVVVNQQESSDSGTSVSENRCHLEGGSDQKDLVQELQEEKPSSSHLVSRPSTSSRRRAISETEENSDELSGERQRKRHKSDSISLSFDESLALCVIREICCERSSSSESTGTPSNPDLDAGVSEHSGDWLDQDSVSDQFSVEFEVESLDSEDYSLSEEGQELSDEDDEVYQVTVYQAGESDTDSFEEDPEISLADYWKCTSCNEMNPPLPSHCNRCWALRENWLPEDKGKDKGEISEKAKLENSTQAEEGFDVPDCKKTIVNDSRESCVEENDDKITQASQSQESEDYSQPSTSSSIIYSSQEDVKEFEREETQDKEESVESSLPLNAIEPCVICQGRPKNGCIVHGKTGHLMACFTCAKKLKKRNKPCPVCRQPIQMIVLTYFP

As a reminder, the Ki is the equilibrium dissociation constant of an inhibitor or competing ligand from its target. `CC(=O)O[C@@H]1C(=O)C2=C(C(=O)C[C@H]3C(C)(C)C(=O)CC[C@]23C)[C@]2(C)C(=O)C[C@H]([C@H](C)CC(=O)CC(C)C(=O)O)[C@@]12C` (some centres unmarked) [ganoderic acid F]: the Ki in data set [1] (virtual screening prediction; read-out: Ki (predicted affinity with MDM2 protein); cited from earlier work) was 212 nM.
By melting point is commonly meant the temperature of the solid-liquid transition. A word on the Kd: it is the constant that tells how readily two partners part at equilibrium. Lower therefore signals a tighter complex. As to `CCCCCCNC(=O)[C@H](C)CC(=O)C[C@@H](C)[C@H]1C[C@H](O)[C@@]2(C)C3=C(C(=O)C[C@]12C)[C@@]1(C)CCC(=O)C(C)(C)[C@@H]1C[C@@H]3O` [Compound A2, (n-hexyl)-(7β,15α,25R)-7,15-Dihydroxy-3,11,23-Trioxolanost-8-en-26-oic Amide], the melting point is 129.9 to 131.3 °C. In [2] (SJSA-1, 50 µM), the “Viability of Cells (% of Control)” value is reported as 51.4 ± 1.7 % of Control. In data set [2] (SJSA-1, 100 µM), the “Viability of Cells (% of Control)” value was 28.5 ± 3.4 % of Control. Also, the “anti-proliferation activity on SJSA-1 (in words)” value in [2] (SJSA-1, 72 h) is on record as “potent inhibition”. In addition, in data set [3] (50 µM), the “Viability of Cells (% of Control)” value was 97.1 ± 4.1 % of Control. Besides, in data set [3] (100 µM), the “Viability of Cells (% of Control)” value is given as 90.9 ± 3.0 % of Control. Further, in data set [4], the “expression of MDM2” value is reported as “increased in a dose-dependent manner” and the “expression of p53 protein” value is listed as “increased in a dose-dependent manner”. For the same molecule, the “proportion of early phase apoptosis cells (Q3)” value (“proportion” for short) in data set [5] (SJSA-1, 12.5 µM) turned out to be 11.6%. In addition, the “proportion” value in data set [5] (SJSA-1, 25 µM) worked out at 12.3%. Besides, the “proportion” value in data set [5] (SJSA-1, 50 µM) was 18.7%. The “Viability of Cells (% of Control)” value in [6] (HepG2, 25 µM) is listed as 78.8 ± 1.7 % of Control. Also, the “Viability of Cells (% of Control)” value in [6] (HepG2, 50 µM) was 48.4 ± 2.1 % of Control. Besides, in data set [6] (HepG2, 48 h), the “anti-proliferation activity on HepG2 (in words)” value is given as “potent anti-proliferation activity”. Moreover, the “level of Bcl-2/Bax” value in [7] is on record as “decreased”. Moreover, in data set [7] (50 µM), the MDM2 protein level result was “increasing trend” and the p53 protein level result is on record as “increasing trend”. For the same molecule, in data set [8] (MCF-7, 25 µM), the “Viability of Cells (% of Control)” value is listed as 66.76 ± 6.2 % of Control. Further, the “Viability of Cells (% of Control)” value in data set [8] (MCF-7, 50 µM) is recorded as 59.4 ± 4.7 % of Control. In addition, the “Viability of Cells (% of Control)” value in data set [8] (MCF-7, 100 µM) was 50.37 ± 1.7 % of Control. Moreover, the “anti-proliferation activity on MCF-7 compared with GAA” value in [8] (MCF-7, 48 h) was “significant anti-proliferation activities”. This molecule came in with a Kd in data set [9] (immobilized MDM2, steady-state analysis) of 1680 nM. This molecule came in with a Kd in data set [9] (printed in Figure 7) of 1648 ± 7 nM.
Take `C[C@H](CC(=O)C[C@@H](C)[C@H]1C[C@H](O)[C@@]2(C)C3=C(C(=O)C[C@]12C)[C@@]1(C)CCC(=O)C(C)(C)[C@@H]1C[C@@H]3O)C(=O)O` [GAA, Ganoderic acid A, reference compound]: the Ki in data set [1] (read-out: Ki (predicted affinity with MDM2 protein); virtual screening prediction; cited from earlier work) was 147 nM. Also, the “Viability of Cells (% of Control)” value in [2] (SJSA-1, 50 µM) is on record as 73.5 ± 1.1 % of Control; in data set [2] (SJSA-1, 100 µM), 74.0 ± 4.0 % of Control; in data set [3] (50 µM), 117.8 ± 6.3 % of Control; in data set [3] (100 µM), 104.9 ± 7.6 % of Control; in data set [6] (HepG2, 25 µM), 83.0 ± 1.5 % of Control; in data set [6] (HepG2, 50 µM) it was 84.0 ± 0.1 % of Control. Moreover, the “Viability of Cells (% of Control)” value in [8] (MCF-7, 25 µM) was 109.9 ± 2.1 % of Control; in data set [8] (MCF-7, 50 µM), 86.2 ± 5.2 % of Control; in [8] (MCF-7, 100 µM), 83.6 ± 9.4 % of Control.
Regarding `CC(=O)O[C@@H](C/C=C(\C)C(=O)O)[C@@H](C)[C@H]1C[C@H](OC(C)=O)[C@@]2(C)C3=CC[C@H]4C(C)(C)[C@H](OC(C)=O)CC[C@]4(C)C3=CC[C@]12C` [ganoderic acid T], the “sensitivity of 95-D cells (wild-type p53) relative to H1299 cells (no p53)” value in data set [10] is given as 3.3 times.
